# Type: physicochemical
# Details: pH 7
# Description: It has been discovered and is believed that the alkali earth metal base, which in some embodiments is part of the nitrile-amide-conversion composition, acts at basic pH values (i.e., at pH values greater than pH 7.0) to undesirably promote degradation of 2,2-dibromo-3-cyanoacetamide to undesirable products. […] As pH of the nitrile-amide-conversion composition becomes increasingly basic, the alkali earth metal base degrades increasing amounts of 2,2-dibromo-3-cyanoacetamide. This base-promoted degradation of 2,2-dibromo-3-cyanoacetamide is especially prevalent at pH 9.0 and higher. The invention process advantageously maintains pH of the reaction mixture in situ during conversion of 2,2-dibromo-3-cyanoacetamide to 2,2-dibromomalonamide in a pH range that minimizes or prevents base-promoted degradation of 2,2-dibromo-3-cyanoacetamide while at the same time facilitates the base-catalyzed conversion thereof to 2,2-dibromomalonamide.
structure (smiles),measurement,value
"NC(=O)C(Br)(Br)C(N)=O [2,2-dibromomalonamide]","stability relative to 2,2-dibromo-3-cyanoacetamide",≥ 10 times

# From patent publication US8975441B2, “Process for preparing 2.2-dibromomalonamide” (Dow Global Technologies LLC, priority 2009, dated 2015)
